# From US8129521B2, “One pot synthesis of tetrazole derivatives of rapamycin” (Abbott Laboratories, priority 2005, dated 2012)
# Legend:
# Format in all cases: physicochemical
# [1] = Equilibration studies of pyran and oxepane forms of zotarolimus without buffer (acetonitrile/water, C-18 HPLC); conditions: non-buffered, 66% acetonitrile in water
# Experimental: Studies were also carried out under non-buffered conditions in a solvent mixture of acetonitrile/water. Multiple injections of zotarolimus were performed on a C-18 Altima column (Alltech Associates, Inc.; Deerfield, Ill.) using 66% acetonitrile in water in a non-buffered media. The pyran and oxepane forms were collected. These forms were re-injected on C-18 column to study the equilibrium ratio at various intervals. […] These observations confirmed that zotarolimus exists in an equilibrium mixture of […] pyran (1) vs. oxepane (2) forms.
# [2] = Zotarolimus stability with various concentrations of BHT
# Experimental: A stability study was carried out to prevent this oxidation using phenolic anti-oxidants and identified BHT as a suitable compound. Tables 3 and 4 present stability data using BHT at various concentrations (% represented w/w) and temperatures.
# [3] = Stability of zotarolimus on storage (potency over time, no anti-oxidant)
# Experimental: Several lots of zotarolimus prepared by the one-pot methods lost significant potency over time. The potency loss was higher at increased temperature, but there was no apparent change in the impurity profile. Table 2 presents the potency of a lot of zotarolimus at various time intervals and temperature conditions. […] This loss was exacerbated in a sealed container when held at 40° C.—from 96.0% to 37.4% over just two months.
smiles,measurement,setting,value
"CO[C@H]1C[C@@H]2CC[C@@H](C)[C@@](O)(O2)C(=O)C(=O)N2CCCC[C@H]2C(=O)O[C@H]([C@H](C)C[C@@H]2CC[C@H](n3cnnn3)[C@H](OC)C2)CC(=O)[C@H](C)/C=C(\C)[C@@H](O)[C@@H](OC)C(=O)[C@H](C)C[C@H](C)/C=C/C=C/C=C/1C [zotarolimus, 40-epi-(1-tetrazolyl)-rapamycin]",time to complete equilibration between two isomers,[1],7 to 8 h
same,potency,"[2]; 4° C., BHT 0.0%, 0 weeks",97.2%
same,potency,"[2]; 4° C., BHT 0.0%, 2 weeks",95.2%
same,potency,"[2]; 4° C., BHT 0.0%, 4 weeks",96.4%
same,potency,"[2]; 4° C., BHT 0.0%, 6 weeks",96.6%
same,potency,"[2]; 4° C., BHT 0.0%, 8 weeks",97.5%
same,potency,"[2]; 4° C., BHT 0.0%, 12 weeks",95.9%
same,potency,"[2]; 4° C., BHT 0.1%, 0 weeks",96.7%
same,potency,"[2]; 4° C., BHT 0.1%, 2 weeks",96.7%
same,potency,"[2]; 4° C., BHT 0.1%, 4 weeks",97.3%
same,potency,"[2]; 4° C., BHT 0.1%, 6 weeks",96.8%
same,potency,"[2]; 4° C., BHT 0.1%, 8 weeks",96.9%
same,potency,"[2]; 4° C., BHT 0.1%, 12 weeks",96.8%
same,potency,"[2]; 4° C., BHT 0.2%, 0 weeks",96.3%
same,potency,"[2]; 4° C., BHT 0.2%, 2 weeks",96.7%
same,potency,"[2]; 4° C., BHT 0.2%, 4 weeks",97.5%
same,potency,"[2]; 4° C., BHT 0.2%, 6 weeks",96.9%
same,potency,"[2]; 4° C., BHT 0.2%, 8 weeks",96.9%
same,potency,"[2]; 4° C., BHT 0.2%, 12 weeks",96.8%
same,potency,"[2]; 4° C., BHT 0.5%, 0 weeks",96.5%
same,potency,"[2]; 4° C., BHT 0.5%, 2 weeks",96.5%
same,potency,"[2]; 4° C., BHT 0.5%, 4 weeks",96.2%
same,potency,"[2]; 4° C., BHT 0.5%, 6 weeks",95.7%
same,potency,"[2]; 4° C., BHT 0.5%, 8 weeks",96.9%
same,potency,"[2]; 4° C., BHT 1.0%, 0 weeks",95.9%
same,potency,"[2]; 4° C., BHT 1.0%, 2 weeks",96.3%
same,potency,"[2]; 4° C., BHT 1.0%, 4 weeks",96.6%
same,potency,"[2]; 4° C., BHT 1.0%, 6 weeks",96.1%
same,potency,"[2]; 4° C., BHT 1.0%, 8 weeks",96.9%
same,potency,"[2]; 4° C., BHT 1.0%, 12 weeks",95.5%
same,potency,"[2]; 40° C., BHT (w/w) 0.1%, 0 weeks",96.7%
same,potency,"[2]; 40° C., BHT (w/w) 0.1%, 2 weeks",96.5%
same,potency,"[2]; 40° C., BHT (w/w) 0.1%, 4 weeks",96.9%
same,potency,"[2]; 40° C., BHT (w/w) 0.1%, 6 weeks",96.1%
same,potency,"[2]; 40° C., BHT (w/w) 0.1%, 8 weeks",96.2%
same,potency,"[2]; 40° C., BHT (w/w) 0.1%, 12 weeks",95.6%
same,potency,"[2]; 40° C., BHT (w/w) 0.2%, 0 weeks",96.3%
same,potency,"[2]; 40° C., BHT (w/w) 0.2%, 2 weeks",96.6%
same,potency,"[2]; 40° C., BHT (w/w) 0.2%, 4 weeks",97.2%
same,potency,"[2]; 40° C., BHT (w/w) 0.2%, 6 weeks",97.1%
same,potency,"[2]; 40° C., BHT (w/w) 0.2%, 8 weeks",97.0%
same,potency,"[2]; 40° C., BHT (w/w) 0.5%, 0 weeks",96.5%
same,potency,"[2]; 40° C., BHT (w/w) 0.5%, 2 weeks",96.1%
same,potency,"[2]; 40° C., BHT (w/w) 0.5%, 4 weeks",96.4%
same,potency,"[2]; 40° C., BHT (w/w) 0.5%, 6 weeks",95.7%
same,potency,"[2]; 40° C., BHT (w/w) 0.5%, 8 weeks",96.1%
same,potency,"[2]; 40° C., BHT (w/w) 0.5%, 12 weeks",95.9%
same,potency,"[2]; 40° C., BHT (w/w) 1.0%, 0 weeks",95.9%
same,potency,"[2]; 40° C., BHT (w/w) 1.0%, 2 weeks",95.4%
same,potency,"[2]; 40° C., BHT (w/w) 1.0%, 4 weeks",96.4%
same,potency,"[2]; 40° C., BHT (w/w) 1.0%, 6 weeks",95.6%
same,potency,"[2]; 40° C., BHT (w/w) 1.0%, 8 weeks",96.5%
same,potency,"[2]; 40° C., BHT (w/w) 1.0%, 12 weeks",95.8%
same,potency,"[3]; storage 5° C. (sealed), 1 month after synthesis",95.0%
same,potency,"[3]; storage 5° C. (sealed), 2 months after synthesis",95.4%
same,potency,"[3]; storage 5° C. (sealed), 2 weeks after synthesis",98.2%
same,potency,"[3]; storage 5° C. (sealed), 3 months after synthesis",95.1%
same,potency,"[3]; storage 5° C. (sealed), Initial",95.7%
same,potency,"[3]; storage 25° C. (sealed), 1 month after synthesis",88.8%
same,potency,"[3]; storage 25° C. (sealed), 2 months after synthesis",81.6%
same,potency,"[3]; storage 25° C. (sealed), 2 weeks after synthesis",95.7%
same,potency,"[3]; storage 25° C. (sealed), 3 months after synthesis",69.8%
same,potency,"[3]; storage 25° C. (sealed), Initial",95.1%
same,potency,"[3]; storage 25° C. (unsealed), 1 month after synthesis",91.6%
same,potency,"[3]; storage 25° C. (unsealed), 2 months after synthesis",87.1%
same,potency,"[3]; storage 25° C. (unsealed), 2 weeks after synthesis",98.0%
same,potency,"[3]; storage 25° C. (unsealed), 3 months after synthesis",75.5%
same,potency,"[3]; storage 25° C. (unsealed), Initial",95.5%
same,potency,"[3]; storage 40° C. (sealed), 1 month after synthesis",61.9%
same,potency,"[3]; storage 40° C. (sealed), 2 months after synthesis",37.4%
same,potency,"[3]; storage 40° C. (sealed), 2 weeks after synthesis",81.1%
same,potency,"[3]; storage 40° C. (sealed), Initial",96%
same,stability at room temperature,[3]; without anti-oxidant,unstable at room temperature
